Data reported in paper PMC10975527 (Viruses, 2024).
Where two headings read alike, the source gives them in different places.

Assays:
in vitro [1] = format: in vitro ADME; conditions: human
HBV pgRNA and preS/S RNA = experiment: Northern blot of intracellular HBV RNA in HepG2.2.15 cells; format: cell-based; conditions: Hepatitis B virus, HepG2.2.15, 48 h
RSV = experiment: Antiviral selectivity panel: RSV; format: cell-based; conditions: human respiratory syncytial virus, HEp-2; HEp2 (human epithelial)
recombinant human PAPD7 = biological target: T1, recombinant human PAPD7 (Homo sapiens, UniProt Q5XG87); experiment: PAPD7 ATP depletion assay; format: biochemical; conditions: 12.5 nM enzyme, 750 nM ATP, 3 h, mean of 3 experiments; read-out: IC50, PAPD7-mediated incorporation of ATP
T1 construct: made in house
T1 sequence (Q5XG87 226-558): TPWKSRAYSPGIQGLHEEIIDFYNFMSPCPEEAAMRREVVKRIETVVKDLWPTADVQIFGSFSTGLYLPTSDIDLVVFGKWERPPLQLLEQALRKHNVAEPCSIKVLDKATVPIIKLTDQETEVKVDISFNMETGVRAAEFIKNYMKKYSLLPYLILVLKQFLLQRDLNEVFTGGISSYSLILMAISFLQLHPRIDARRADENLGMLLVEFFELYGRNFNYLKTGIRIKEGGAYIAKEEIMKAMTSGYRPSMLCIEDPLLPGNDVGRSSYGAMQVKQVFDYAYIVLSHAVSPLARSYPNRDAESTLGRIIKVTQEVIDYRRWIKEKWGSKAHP

in vitro [2] = format: in vitro ADME; conditions: mouse
in vitro [3] = conditions: bovine
[4] = mouse, in vivo
in vitro [5] = format: in vitro ADME; conditions: monkey, plasma
WNV = experiment: Antiviral selectivity panel: WNV; format: cell-based; conditions: West Nile virus, Vero 76, in Primates; Vero76 (monkey kidney)
Wild-type HBV = experiment: HBV polymerase variant phenotyping in Huh-7: wild-type; conditions: Hepatitis B virus
recombinant human PAPD5 = biological target: T2, recombinant human PAPD5 (Homo sapiens, UniProt Q8NDF8); experiment: PAPD5 ATP depletion assay; format: biochemical; conditions: 12.5 nM enzyme, 750 nM ATP, 3 h, mean of 3 experiments; read-out: IC50, PAPD5-mediated incorporation of ATP
T2 construct: made in house
T2 sequence (Q8NDF8 106-438 limits assumed): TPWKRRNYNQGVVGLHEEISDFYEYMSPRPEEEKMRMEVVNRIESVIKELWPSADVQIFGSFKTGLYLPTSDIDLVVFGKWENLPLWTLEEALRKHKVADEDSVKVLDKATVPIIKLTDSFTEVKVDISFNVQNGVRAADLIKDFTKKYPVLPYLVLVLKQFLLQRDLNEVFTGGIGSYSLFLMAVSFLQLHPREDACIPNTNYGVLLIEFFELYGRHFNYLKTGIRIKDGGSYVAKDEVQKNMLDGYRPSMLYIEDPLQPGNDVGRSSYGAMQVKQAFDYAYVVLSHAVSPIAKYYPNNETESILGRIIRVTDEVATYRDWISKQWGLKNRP

HIV = experiment: Antiviral selectivity panel: HIV; format: cell-based; conditions: Human immunodeficiency virus 1; CEM-22 (human T lymphoblast)
[6] = Tolerability in AAV-HBV mice; conditions: once-daily dosing for 14 days
in vitro [7] = conditions: monkey
HBV [8] = experiment: HBV-infected HepG2-hNTCP antiviral assay; format: cell-based; conditions: Hepatitis B virus, genotype D
HBV (AAV-HBV) = experiment: AAV-HBV mouse model, serum HBsAg; conditions: AAV-HBV mice; for mean reduction of serum HBsAg compared to pre-dose baseline: 14 days
in vitro [9] = conditions: hamster
HBV [10] = experiment: HBV life cycle analysis in HepG2.2.15 cells; format: cell-based, hepatitis B virus; conditions: ETV 1 μM, GLS4 1 μM, AB-161 100 nM
[11] = tested on: HBsAg expressed from integrated HBV; experiment: HBsAg from integrated HBV in PLC/PRF/5 cells; format: cell-based; conditions: Hepatitis B virus, PLC-PRF-5, read-out: HBsAg EC50
HCV = experiment: Antiviral selectivity panel: HCV; format: cell-based; conditions: Hepatitis C virus; Huh-7 (human liver)
HBV genotypes A–H = experiment: HBV genotype coverage in HBV transfected Huh-7 cells (HBsAg); conditions: Hepatitis B virus
[12] = tested on: HBsAg with SLα deletion mutant (ΔSLα) PRE; experiment: HBV PRE variant phenotyping in Huh-7: ΔSLα plasmid (HBsAg); format: cell-based; conditions: Hepatitis B virus, Huh-7, 120 h, read-out: HBsAg EC50
Sprague Dawley rats = experiment: 13-week repeat-dose toxicity study in rats; format: in vivo
in vitro [13] = format: in vitro ADME; conditions: dog, plasma
HBV [14] = experiment: HBV antiviral assay in HepG2.2.15 cells (HBsAg/HBeAg CLIA, secreted HBV DNA PCR); format: cell-based; conditions: Hepatitis B virus, HepG2.2.15, genotype D
HRV = experiment: Antiviral selectivity panel: HRV; format: cell-based; conditions: Human rhinovirus sp., HEp-2; HEp2 (human epithelial)
HCMV = experiment: Antiviral selectivity panel: HCMV; format: cell-based, human cytomegalovirus; conditions: Human betaherpesvirus 5, MRC5; MRC-5 (human lung)
IAV = experiment: microbe, parasite or virus in culture; format: cell-based; conditions: Influenza A virus, MDBK, in Bos taurus, read-out: EC50 (IAV)
[15] = read-out: HBeAg EC50 (converted)

Compound: COc1cc(OC(F)F)c2nc3c(n2c1)C[C@@H](C(C)(C)C)c1cc(C(=O)O)c(=O)[nH]c1-3 [AB-161]
- plasma protein binding, bound (in vitro [1]; 6 h, 500 ng/mL): 95%
- fraction unbound at 6 h, 500 ng/mL (in vitro [1]; plasma, plasma protein binding, bound): 0.049
- EC50 (HBV pgRNA and preS/S RNA; read-out: EC50, steady state level of pgRNA (3.5 kb)): 6.9 to 21 nM
- EC50 (HBV pgRNA and preS/S RNA; read-out: EC50, steady state level of preS/S RNA (2.4/2.1 kb)): 2.3 to 6.9 nM
- EC50 (RSV): > 30 µM
- IC50 (recombinant human PAPD7): 1100 nM
- AB-161 estimated to be free (in vitro [2]; 6 h, 500 ng/mL): 2.4%
- fraction unbound at 6 h, 500 ng/mL (in vitro [2]; plasma): 0.024
- fraction-unbound factor (in vitro [2]; plasma, 6 h, 500 ng/mL): 0.024
- CC50 (in vitro [3]): > 30 µM
- liver and kidney function markers (ALT, creatinine) [4]: no significant changes
- fraction unbound at 6 h, 500 ng/mL (in vitro [5]): 0.02
- EC50 (WNV): > 30 µM
- EC50 (Wild-type HBV; Huh-7, read-out: EC50 (HBsAg)): 1.9 to 4.9 nM
- EC50 (Wild-type HBV; Huh-7, read-out: HBsAg, EC50): 4.9 nM
- IC50 (recombinant human PAPD5): 850 nM
- EC50 (HIV): > 30 µM
- tolerability [6]: well-tolerated
- CC50 (in vitro [7]): > 30 µM
- EC50 (HBV [8]; read-out: HBV RNA EC50 (converted)): 30.1 nM
- EC50 (HBV [8]; [15]): 20.9 nM
- EC50 (HBV [8]; read-out: HBsAg EC50): 25.3 ± 10.9 nM
- mean reduction of serum HBsAg compared to pre-dose baseline (HBV (AAV-HBV); 0.3 mg/kg oral QD): 0.13 log10
- mean reduction of serum HBsAg compared to pre-dose baseline (HBV (AAV-HBV); 1 mg/kg oral QD): 0.34 log10
- mean reduction of serum HBsAg compared to pre-dose baseline (HBV (AAV-HBV); 10 mg/kg oral QD): 0.71 log10
- mean reduction of serum HBsAg compared to pre-dose baseline (HBV (AAV-HBV); 30 mg/kg oral QD): 0.94 log10
- earliest time at which inhibition of serum HBsAg was observed (HBV (AAV-HBV); after initiation of dosing): 4 days
- mean maximal reduction of serum HBsAg compared to pre-dose baseline (HBV (AAV-HBV); oral QD 14 days, dose range 0.3 to 30 mg/kg): 0.94 ± 0.56 log10
- CC50 (in vitro [9]): > 30 µM
- HBV DNA replication (HBV [10]): inhibited
- intracellular HBV RNA (pgRNA, preS/S RNA) (HBV [10]): inhibited
- viral proteins: HBV core and capsid assembly (HBV [10]): inhibited
- EC50 [11]: 5.9 ± 2.5 nM
- EC50 (HCV): > 30 µM
- EC50 (HBV genotypes A–H; Huh-7, read-out: HBsAg EC50, HBV transfected Huh-7, range over genotypes A–H): 2.1 to 4.5 nM
- EC50 (HBV genotypes A–H; Huh-7, read-out: HBsAg EC50, Huh-7, HBV genotype A): 3 ± 0.8 nM
- EC50 (HBV genotypes A–H; Huh-7, read-out: HBsAg EC50, Huh-7, HBV genotype B): 2.6 ± 1.4 nM
- EC50 (HBV genotypes A–H; Huh-7, read-out: HBsAg EC50, Huh-7, HBV genotype C): 2.3 ± 0.6 nM
- EC50 (HBV genotypes A–H; Huh-7, read-out: HBsAg EC50, Huh-7, HBV genotype D): 4.5 ± 2.8 nM
- EC50 (HBV genotypes A–H; Huh-7, read-out: HBsAg EC50, Huh-7, HBV genotype E): 2.5 ± 0.9 nM
- EC50 (HBV genotypes A–H; Huh-7, read-out: HBsAg EC50, Huh-7, HBV genotype F): 3.3 ± 2.6 nM
- EC50 (HBV genotypes A–H; Huh-7, read-out: HBsAg EC50, Huh-7, HBV genotype H-1): 2.4 ± 0.5 nM
- EC50 (HBV genotypes A–H; Huh-7, read-out: HBsAg EC50, Huh-7, HBV genotype H-2): 2.1 ± 0.9 nM
- EC50 [12]: > 100 nM
- reproductive safety findings (Sprague Dawley rats; male or female rats, 13-week administration, all doses): no reproductive safety findings
- motor nerve conduction (Sprague Dawley rats; rats): No differences from baseline or time-matched controls
- sensory nerve conduction velocity (NCV) (Sprague Dawley rats; rats, 500 mg/kg, day 70 and day 119, considered non-adverse): NCV delays were noted
- fraction unbound at 6 h, 500 ng/mL (in vitro [13]): 0.047
- EC50 (HBV [14]; 144 h, 6-day incubation, read-out: HBsAg EC50): 2.3 ± 1 nM
- EC50 (HBV [14]; secreted HBV DNA, read-out: HBV DNA EC50 (converted)): 0.36 nM
- EC50 (HBV [14]; with 40% human serum, read-out: HBsAg (40% human serum) EC50 (converted)): 63 nM
- EC50 (HBV [14]; [15]): 13.7 nM
- CC50 (MRC-5 (human lung)): > 30 µM
- CC50 (Huh-7 cells; HBV transfected Huh-7, genotypes A–H): > 50 µM
- CC50 (Huh-7 cells; Huh-7, HBV genotype A): > 50 µM
- CC50 (Huh-7 cells; Huh-7, HBV genotype C): > 50 µM
- CC50 (Huh-7 cells; Huh-7, HBV genotype D): > 50 µM
- CC50 (Huh-7 cells; Huh-7, HBV genotype E): > 50 µM
- CC50 (Huh-7 cells; Huh-7, HBV genotype F): > 50 µM
- CC50 (Huh-7 cells; Huh-7, HBV genotype H-1): > 50 µM
- CC50 (Huh-7 cells; Huh-7, HBV genotype H-2): > 50 µM
- CC50 (HEp2 (human epithelial)): > 30 µM
- EC50 (HRV): > 30 µM
- EC50 (HCMV): > 30 µM
- EC50 (IAV): > 30 µM
